According to the NIST ThermoML archive (doi:10.1021/je900387e):

Test: xn = mol fraction of the nth substance listed
Conditions: Liquid, Pycnometric method

CCCCBr [1-bromobutane] + O=C=O
mass density [kg/m3]
Conditions	313.1 K	316.1 K
7910 kPa, x1 = 0.0461	769	–
7950 kPa, x1 = 0.0683	826	–
7990 kPa, x1 = 0.0245	619	–
8000 kPa, x1 = 0.0245	621	–
8010 kPa, x1 = 0.0461	775	–
8030 kPa, x1 = 0.0245	628	–
8060 kPa, x1 = 0.0683	829	–
8070 kPa, x1 = 0.0245	635	–
8090 kPa, x1 = 0.1495	1001	–
8100 kPa, x1 = 0.0245	641	–
8100 kPa, x1 = 0.0461	780	–
8140 kPa, x1 = 0.0245	649	–
8170 kPa, x1 = 0.0683	832	–
8170 kPa, x1 = 0.0989	893	–
8190 kPa, x1 = 0.0245	656	–
8240 kPa, x1 = 0.0245	663	–
8240 kPa, x1 = 0.0461	786	–
8270 kPa, x1 = 0.0245	–	528
8280 kPa, x1 = 0.0245	–	532
8290 kPa, x1 = 0.0683	835	–
8300 kPa, x1 = 0.0245	671	537
8320 kPa, x1 = 0.0245	–	543
8340 kPa, x1 = 0.0245	–	549
8360 kPa, x1 = 0.0245	679	556
8360 kPa, x1 = 0.0461	791	–
8380 kPa, x1 = 0.0245	–	562
8390 kPa, x1 = 0.0683	838	–
8410 kPa, x1 = 0.0245	–	572
8430 kPa, x1 = 0.0245	687	–
8460 kPa, x1 = 0.0245	–	582
8460 kPa, x1 = 0.1495	1004	–
8500 kPa, x1 = 0.0461	797	–
8530 kPa, x1 = 0.0245	695	–
8540 kPa, x1 = 0.0683	842	–
8560 kPa, x1 = 0.0989	900	–
8620 kPa, x1 = 0.0245	703	–
8650 kPa, x1 = 0.0461	802	–
8660 kPa, x1 = 0.0683	845	–
8740 kPa, x1 = 0.0245	712	–
8790 kPa, x1 = 0.0683	848	–
8790 kPa, x1 = 0.1495	1008	–
8840 kPa, x1 = 0.0461	808	–
8860 kPa, x1 = 0.0245	720	–
8930 kPa, x1 = 0.0683	851	–
9010 kPa, x1 = 0.0245	729	–
9030 kPa, x1 = 0.0989	907	–
9040 kPa, x1 = 0.0461	814	–
9110 kPa, x1 = 0.0683	854	–
9180 kPa, x1 = 0.0245	738	–
9240 kPa, x1 = 0.0461	820	–
9260 kPa, x1 = 0.0683	858	–
9380 kPa, x1 = 0.0245	748	–
9440 kPa, x1 = 0.0683	861	–
9470 kPa, x1 = 0.0461	826	–
9480 kPa, x1 = 0.0989	913	–
9540 kPa, x1 = 0.1495	1015	–
9580 kPa, x1 = 0.0683	864	–
9600 kPa, x1 = 0.0245	758	–
9710 kPa, x1 = 0.0461	833	–
9790 kPa, x1 = 0.0683	868	–
9850 kPa, x1 = 0.0245	767	–
9950 kPa, x1 = 0.1495	1018	–
9990 kPa, x1 = 0.0461	840	–
10020 kPa, x1 = 0.0989	920	–
10150 kPa, x1 = 0.0245	778	–
10330 kPa, x1 = 0.1495	1022	–
10450 kPa, x1 = 0.0245	788	–
10600 kPa, x1 = 0.0989	927	–
10770 kPa, x1 = 0.1495	1026	–
10840 kPa, x1 = 0.0245	799	–
11180 kPa, x1 = 0.0989	933	–
11240 kPa, x1 = 0.1495	1030	–
11280 kPa, x1 = 0.0245	810	–
11690 kPa, x1 = 0.1495	1033	–
11760 kPa, x1 = 0.0245	821	–
11850 kPa, x1 = 0.0989	941	–
12120 kPa, x1 = 0.1495	1036	–
12160 kPa, x1 = 0.0989	944	–
12320 kPa, x1 = 0.0245	833	–
12560 kPa, x1 = 0.0989	948	–
12600 kPa, x1 = 0.1495	1040	–
12960 kPa, x1 = 0.0245	845	–
13090 kPa, x1 = 0.1495	1044	–
13640 kPa, x1 = 0.1495	1047	–
13700 kPa, x1 = 0.0245	857	–
14170 kPa, x1 = 0.1495	1051	–
14530 kPa, x1 = 0.0245	870	–
14740 kPa, x1 = 0.1495	1056	–
14980 kPa, x1 = 0.0245	876	–
15070 kPa, x1 = 0.1495	1058	–
15150 kPa, x1 = 0.0245	879	–
15320 kPa, x1 = 0.1495	1060	–
